Assay results reported in US7759345B2, “Antitumoral derivatives of ET-743” (priority 2001, dated 2010).
Where two headings read alike, the source gives them in different places.

Legend:
A-549 [1] = experiment: Inhibition of cell growth by counting cells, A-549; type: cell-based, human; conditions: Homo sapiens, A549, 72 h; three days of incubation; read-out: IC50 (molar) A-549
Method: (§1) 1°.—Inhibition of Cell Growth by Counting Cells.
(§2) This form of the assay employs 24 well multidishes of 16 mm diameter (Bergeron, 1984; Schroeder, 1981). The tumor cell lines employed are: P-388 (ATCC CCL 46), suspension culture of a lymphoid neoplasm from a DBA/2 mouse; A-549 (ATCC CCL 185), monolayer culture of a human lung carcinoma; HT-29 (ATCC HTB-38), monolayer culture of a human colon carcinoma; MEL-28 (ATCC HTB-72), monolayer culture of a human melanoma and DU-145 (ATCC HTB-81), monolayer culture of a human prostate carcinoma.
(§3) Cells were maintained, in logarithmic phase of growth in Eagle's Minimum Essential Medium, with Earle's Balanced Salts, with non-essential amino acids, with 2.0 mM L-Glutamine, without sodium bicarbonate (EMEM/neaa), supplemented with 10% Fetal Calf Serum (FCS), 10^−2 M. sodium bicarbonate and 0.1 U/l penicillin G+0.1 g/l streptomycin sulfate. For the experiments, cells are harvested from subconfluent cultures using trypsin and resuspended in fresh medium before plating.
(§4) A-549, HT-29, MEL-28 and DU-145 cells were seeded into 16 mm diameter wells at 1×10^4 cells per well in 1 ml aliquots of EMEM 5% FCS containing different concentrations of the sample to be tested. A separate set of cultures without drug was seeded as control of growth, to ensure that cells remained in exponential phase of growth. All determinations are carrying out in duplicate. After three days of incubation at 37° C., 5% CO2 in a 98% humid atmosphere cells were stained with 0.1% crystal violet. An approximately IC50 was determined by comparing the growth in wells with drug to the growth in wells control.
(§5) For quantifying the activity, after the incubation time, cells are trypsinized and counted in a Coulter Counter ZM. All counts (net cells per well), represent the average of duplicate wells. % G, percent of growth relative to cultures without drug. The results of these assays are used to generate dose-response curves from which more precise IC50 values are determined (sample concentration which produces 50% cell growth inhibition).
(§6) Obtained results may predict the usefulness of a certain drug as a potential cancer treatment. For this technique, compounds which show IC50 values smaller than 1 μg/ml are selected to continue with further studies. IC50's data allow to predict that not only could a drug be cystostatic, but also it could have a potential in terms of tumor reduction.

HT-29 [2] = experiment: Inhibition of cell growth by counting cells, HT-29; type: cell-based, human; conditions: Homo sapiens, HT-29, 72 h; three days of incubation; read-out: IC50 (molar) HT-29
Method: as §1, §2, §3, §4, §5, §6

HT-29 [3] = experiment: Inhibition of cells growth by colorimetric assay (SRB), HT-29; type: cell-based; conditions: for GI50 / LC50 (concentration for 50% cell killing): Homo sapiens, HT-29, 48 h
Method: (§7) 2°.—Inhibition of Cells Growth by Colorimetric Assay.
(§8) A colorimetric type of assay, using sulforhodamine B (SRB) reaction has been adapted for a quantitative measurement of cell growth and viability [following the technique described by Philip Skehan, et al. (1990), New colorimetric cytotoxicity assay for anticancer drug screening, J. Natl. Cancer Inst., 82:1107-1112]
(§9) This form of the assay employs 96 well cell culture microplates of 9 mm diameter (Faircloth, 1988; Mosmann, 1983). Most of the cell lines are obtained from American Type Culture Collection (ATCC) derived from different human cancer types.
(§10) Cells are maintained in RPMI 1640 10% FBS, supplemented with 0.1 g/l penicillin and 0.1 g/l streptomycin sulfate and then incubated at 37° C., 5% CO2 and 98% humidity. For the experiments, cells were harvested from subconfluent cultures using trypsin and resuspended in fresh medium before plating.
(§11) Cells are seeded in 96 well microtiter plates, at 5×10^3 cells per well in aliquots of 195 μl medium, and they are allowed to attach to the plate surface by growing in drug free medium for 18 hours. Afterward, samples are added in aliquots of 5 μl in a ranging from 10 to 10^−8 μg/ml, dissolved in DMSO/EtOH/PBS (0.5:0.5:99). After 48 hours exposure, the antitumor effect are measured by the SRB methodology: cells are fixed by adding 50 μl of cold 50% (wt/vol) trichloroacetic acid (TCA) and incubating for 60 minutes at 4° C. Plates are washed with deionized water and dried. One hundred μl of SRB solution (0.4% wt/vol in 1% acetic acid) is added to each microtiter well and incubated for 10 minutes at room temperature. Unbound SRB is removed by washing with 1% acetic acid. Plates are air dried and bound stain is solubilized with Tris buffer. Optical densities are read on a automated spectrophotometric plate reader at a single wavelength of 490 nm.
(§12) The values for mean+/−SD of data from triplicate wells are calculated. Some parameters for cellular responses can be calculated: GI=growth inhibition, TGI=total growth inhibition (cytostatic effect) and LC=cell killing (cytotoxic effect).
as §6, with “GI50” for “IC50”, “10” for “1”, “GI50's” for “IC50's”

A-549 [4] = experiment: Inhibition of cells growth by colorimetric assay (SRB), A-549; type: cell-based; conditions: for GI50 / LC50 (concentration for 50% cell killing): Homo sapiens, A549, 48 h
Method: as §7, §8, §9, §10, §11, §12
as §6, with “GI50” for “IC50”, “10” for “1”, “GI50's” for “IC50's”

[5] = read-out: HT-29 LC50, SRB assay, 48 hours exposure
[6] = read-out: A-549 LC50, SRB assay, 48 hours exposure
[7] = HT-29, SRB, 48 hours exposure, read-out: GI50 HT-29
[8] = read-out: LC50 HT-29, HT-29, SRB, 48 hours exposure
[9] = A-549, SRB, 48 hours exposure, read-out: GI50 A-549
[10] = read-out: LC50 A-549, A-549, SRB, 48 hours exposure

SMILES: C=CCOc1c(C)c2c(c3c1[C@H]1SC[C@]4(NCCc5cc(O)c(OC)cc54)C(=O)OC[C@@H]3N3C1[C@H]1c4c(cc(C)c(OC)c4O)C[C@@H]([C@@H]3C#N)N1C)OCO2 (stereo partly drawn) [Compound 155]
- IC50 (A-549 [1]): 1.3 nM
- IC50 (HT-29 [2]): 1.3 nM

SMILES: CCCC(=O)Oc1cc2c(cc1OC)[C@@]1(CS[C@@H]3c4c(OC(C)=O)c(C)c5c(c4[C@H](COC1=O)N1C3[C@H]3c4c(cc(C)c(OC)c4OC(=O)CCC)C[C@@H]([C@@H]1C#N)N3C(=O)OC(C)(C)C)OCO5)NCC2 (stereo partly drawn) [Compound 193]
- GI50 (HT-29 [3]; read-out: HT-29 GI50): 0.1 nM
- LC50 (concentration for 50% cell killing) (HT-29 [3]; [5]): 20100 nM
- HT-29 TGI (HT-29 [3]; SRB assay, 48 hours exposure): 2.01E-08
- GI50 (A-549 [4]; read-out: A-549 GI50): 0.401 nM
- LC50 (concentration for 50% cell killing) (A-549 [4]; [6]): 100 nM
- A-549 TGI (A-549 [4]; SRB assay, 48 hours exposure): 4.01E-09

SMILES: COc1cc2c(cc1OC)[C@@]1(CS[C@@H]3c4c(OC(C)=O)c(C)c5c(c4[C@H](COC1=O)N1C3[C@H]3c4c(cc(C)c(OC)c4OC)C[C@@H]([C@@H]1C#N)N3C)OCO5)NCC2 (stereo partly drawn) [Compound 35]
- TGI HT-29 (HT-29 [3]; HT-29, SRB, 48 hours exposure): 1.25E-08
- GI50 (HT-29 [3]; [7]): 5.41 nM
- LC50 (concentration for 50% cell killing) (HT-29 [3]; [8]): 12500 nM
- TGI A-549 (A-549 [4]; A-549, SRB, 48 hours exposure): 7.22E-08
- GI50 (A-549 [4]; [9]): 5.68 nM
- LC50 (concentration for 50% cell killing) (A-549 [4]; [10]): 2150 nM

SMILES: COc1cc2c(cc1OC(C)=O)CCN[C@]21CS[C@@H]2c3c(OC(C)=O)c(C)c4c(c3[C@H](COC1=O)N1C2[C@@H]2N[C@@H](Cc3cc(C)c(OC)c(O)c32)[C@@H]1O)OCO4 (stereo partly drawn) [Compound 210]
- LC50 (concentration for 50% cell killing) (HT-29 [3]; [5]): 63300 nM
- HT-29 TGI (HT-29 [3]; SRB assay, 48 hours exposure): 6.33E-08
- LC50 (concentration for 50% cell killing) (A-549 [4]; [6]): 38000 nM
- A-549 TGI (A-549 [4]; SRB assay, 48 hours exposure): 5.06E-13

SMILES: COc1cc2c(cc1O)CCN[C@]21CS[C@@H]2c3c(OC(=O)C(F)(F)C(F)(F)C(F)(F)F)c(C)c4c(c3[C@H](COC1=O)N1C2[C@H]2c3c(cc(C)c(OC)c3O)C[C@@H]([C@@H]1C#N)N2C)OCO4 (stereo partly drawn) [Compound 143]
- HT-29 TGI (HT-29 [3]; HT-29, SRB, 48 hours exposure): 1.08E-08
- GI50 (HT-29 [3]; read-out: HT-29 GI50): 10.8 nM
- LC50 (concentration for 50% cell killing) (HT-29 [3]; read-out: HT-29 LC50, HT-29, SRB, 48 hours exposure): 10800 nM
- A-549 TGI (A-549 [4]; A-549, SRB, 48 hours exposure): 4.32E-08
- GI50 (A-549 [4]; read-out: A-549 GI50): 21.6 nM
- LC50 (concentration for 50% cell killing) (A-549 [4]; read-out: A-549 LC50, A-549, SRB, 48 hours exposure): 108 nM

SMILES: COc1cc2c(cc1O)CCN(C)[C@]21CS[C@@H]2c3c(OC(C)=O)c(C)c4c(c3[C@H](COC1=O)N1C2[C@H]2c3c(cc(C)c(OC)c3O)C[C@@H]([C@@H]1C#N)N2C(=O)OC(C)(C)C)OCO4 (stereo partly drawn) [Compound 200]
- GI50 (HT-29 [3]; SRB assay, 48 hours exposure, read-out: HT-29 GI50): 23 nM
- LC50 (concentration for 50% cell killing) (HT-29 [3]; [5]): 1150 nM
- HT-29 TGI (HT-29 [3]; SRB assay, 48 hours exposure): 8.05E-09
- GI50 (A-549 [4]; SRB assay, 48 hours exposure, read-out: A-549 GI50): 23 nM
- LC50 (concentration for 50% cell killing) (A-549 [4]; [6]): 115 nM
- A-549 TGI (A-549 [4]; SRB assay, 48 hours exposure): 3.45E-08

SMILES: COc1cc2c(cc1OC(=O)c1cc3ccccc3oc1=O)CCN[C@]21CS[C@@H]2c3c(OC(C)=O)c(C)c4c(c3[C@H](COC1=O)N1C2[C@H]2c3c(cc(C)c(OC)c3O)C[C@@H]([C@@H]1C#N)N2C)OCO4 (stereo partly drawn) [Compound 21]
- TGI HT-29 (HT-29 [3]; HT-29, SRB, 48 hours exposure): 1.06E-07
- GI50 (HT-29 [3]; [7]): 5.31 nM
- LC50 (concentration for 50% cell killing) (HT-29 [3]; [8]): 10600 nM
- TGI A-549 (A-549 [4]; A-549, SRB, 48 hours exposure): 1.06E-08
- GI50 (A-549 [4]; [9]): 3.34 nM
- LC50 (concentration for 50% cell killing) (A-549 [4]; [10]): 10600 nM
